From ChEMBL document CHEMBL1154056, “Synthesis, characterization, antimicrobial and antitumor screening of some diorganotin(IV) complexes of 2-[(9H-Purin-6-ylimino)]-phenol” (Eur J Med Chem, 2009)
≈ marks a conversion by molar mass, not a printed value.

Legend:
Bacillus subtilis [1] = assay: Antibacterial activity against Bacillus subtilis at 2 mg by agar well diffusion assay relative to imipenem; type: functional
Escherichia coli [2] = assay: Antibacterial activity against Escherichia coli at 2 mg by agar well diffusion assay relative to imipenem; type: functional
Salmonella typhi [3] = assay: Antibacterial activity against Salmonella typhi at 2 mg by agar well diffusion assay relative to imipenem; type: functional, Salmonella enterica subsp. enterica serovar Typhi
Bacillus subtilis [4] = assay: Antibacterial activity against Bacillus subtilis; type: functional
Staphylococcus aureus = assay: Antibacterial activity against Staphylococcus aureus; type: functional
Escherichia coli [5] = assay: Antibacterial activity against Escherichia coli; type: functional
Salmonella typhi [6] = assay: Antibacterial activity against Salmonella typhi; type: functional, Salmonella enterica subsp. enterica serovar Typhi; conditions: Salmonella enterica
Pseudomonas aeruginosa = assay: Antibacterial activity against Pseudomonas aeruginosa; type: functional
Aspergillus flavus [7] = assay: Antifungal activity against Aspergillus flavus at 50 mg after 72 hrs by dilution plate method; type: functional; conditions: read-out: IZ
Aspergillus niger = assay: Antifungal activity against Aspergillus niger assessed as growth inhibition at 50 mg after 72 hrs dilution plate method; type: functional
Fusarium oxysporum = assay: Antifungal activity against Fusarium oxysporum assessed as growth inhibition at 50 mg after 72 hrs by dilution plate method; type: functional
Aspergillus flavus [8] = assay: Antifungal activity against Aspergillus flavus assessed as growth inhibition at 50 mg after 72 hrs by dilution plate method; type: functional

`OC1=CC=CC/C1=N\c1ncnc2[nH]cnc12` was tested, and the “inhibition (INH)” value (Bacillus subtilis [1]) was 30%, the “inhibition (INH)” value (Escherichia coli [2]) was 10% and the “inhibition (INH)” value (Salmonella typhi [3]) was 10%. For the same molecule, the MIC (Bacillus subtilis [4]) was 128 µg/mL (≈ 563 µM), the MIC (Staphylococcus aureus) was 128 µg/mL (≈ 563 µM) and the MIC (Escherichia coli [5]) was 64 µg/mL (≈ 282 µM). It also gave an MIC (Salmonella typhi [6]) of 64 µg/mL (≈ 282 µM), an MIC (Pseudomonas aeruginosa) of 64 µg/mL (≈ 282 µM) and a zone of inhibition at 50000 µg/disc (Aspergillus flavus [7]) of 8 mm. The “inhibition (INH)” value (Aspergillus niger) was 8%, the “inhibition (INH)” value (Fusarium oxysporum) was 12% and the “inhibition (INH)” value (Aspergillus flavus [8]) was 10%.
